Bounds are passed on as bounds.

As a reminder, the IC50 is the concentration that gives 50% inhibition.

In the first assay the target is T1, recombinant human MMP-13 (Homo sapiens, UniProt P45452).
T1 construct: made in house; host or cells: baculovirus (pBlueBac4 / Bac-N-Blue; virus made in Sf9), expressed in High-Five insect cells; culture supernatant used
The assay can be described thus: Assay of MMP-13 inhibiting activity (fluorogenic peptide substrate). The assay is classed as biochemical. The following applies: Table 3; 37° C., 2 hours. In a few lines:
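Baculovirus-expressed human MMP-13 (High-Five cell supernatant) in pH 7.5 Tris buffer with 200 mM NaCl, 20 mM CaCl2, 0.1% Brij 35, 1 mM 2-mercaptoethanol; reaction started with 40 μM (stock) MOCAc-PLGL-A2pr(DNP)-AR-NH2, 2 h at 37 °C, stopped at pH 3.0. Fluorescence 330/405 nm; IC50 versus no-compound control.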
With “Ethyl 3-{[(3R)-5-oxo-1-(4-phenoxybenzyl)-2-pyrrolidinyl]disulfanyl}propanoate [Example 84]”, the IC50 came to 32 nM.

The same assay, now with this note: Table 5; 37° C., 2 hours.
On to `CC(=O)S[C@H]1CC(=O)N(Cc2ccc(Oc3ccccc3)cc2)[C@H]1C` [Example 175, (4S,5S)-4-Acetylthio-5-methyl-1-(4-phenoxybenzyl)pyrrolidin-2-one], for which the IC50 was 100 nM.
For `C[C@H]1[C@@H](S)CC(=O)N1Cc1ccc(Oc2ccccc2)cc1` [Example 176, (4S,5S)-4-Mercapto-5-methyl-1-(4-phenoxybenzyl)pyrrolidin-2-one], the half-inhibitory concentration (IC50) was determined as 50 nM.
On to `CC(=O)S[C@@H]1CC(=O)N(Cc2ccc(Oc3ccccc3)cc2)[C@H]1C` [Example 177, (4R,5S)-4-Acetylthio-5-methyl-1-(4-phenoxybenzyl)pyrrolidin-2-one], for which the IC50 turned out to be 2 nM.
For `C[C@H]1[C@H](S)CC(=O)N1Cc1ccc(Oc2ccccc2)cc1` [Example 178, (4R,5S)-4-Mercapto-5-methyl-1-(4-phenoxybenzyl)pyrrolidin-2-one], the IC50 was determined as 5 nM.
Take `CC(=O)SC1CC(=O)N(Cc2ccc(Oc3ccccc3)cc2)C1C(N)=O` (stereo not drawn) [Example 187, trans-5-Aminocarbonyl-4-acetylthio-1-(4-phenoxybenzyl)pyrrolidin-2-one]: the concentration for half-maximal inhibition (IC50) worked out at 360 nM.
As for `NC(=O)C1C(S)CC(=O)N1Cc1ccc(Oc2ccccc2)cc1` (stereo not drawn) [Example 188, trans-5-Aminocarbonyl-4-mercapto-1-(4-phenoxybenzyl)pyrrolidin-2-one], the IC50 is 13 nM.

The same assay, now with this note: Table 6; 37° C., 2 hours.
Turning to `CC(=O)SC1CN(Cc2ccc(Oc3ccccc3)cc2)C(=O)C1C` (stereo not drawn) [Example 194, trans-4-Acetylthio-3-methyl-1-(4-phenoxybenzyl)pyrrolidin-2-one], the IC50 turned out to be 30 nM.
On to `CC1C(=O)N(Cc2ccc(Oc3ccccc3)cc2)CC1S` (stereo not drawn) [Example 195, trans-4-Mercapto-3-methyl-1-(4-phenoxybenzyl)pyrrolidin-2-one], for which the IC50 is 6 nM.

Staying with this assay, now noted: Table 9; 37° C., 2 hours.
For the compound `CCNC(=O)Nc1ccc(Oc2ccc(CN3CC(S)CC3=O)cc2)cc1` (stereo not drawn) [Example 149, 4-Mercapto-1-[4-(4′-ethylaminocarbonylaminophenoxy)benzyl]pyrrolidin-2-one], the half-inhibitory concentration (IC50) is 3.5 nM.
With `CC(=O)SC1CC(=O)N(Cc2ccc(Oc3ccccc3)cc2[N+](=O)[O-])C1` (stereo not drawn) [Example 150, 4-Acetylthio-1-(2-nitro-4-phenoxybenzyl)pyrrolidin-2-one], the IC50 came out at 5500 nM.
In the case of `CC(=O)SC1CC(=O)N(Cc2ccc(Oc3ccccc3)c([N+](=O)[O-])c2)C1` (stereo not drawn) [Example 151, 4-Acetylthio-1-(3-nitro-4-phenoxybenzyl)pyrrolidin-2-one], the IC50 was > 10000 nM.
On the same count and under the same terms, with `CC(=O)SC1CC(=O)N(Cc2ccc(Oc3ccccc3)c(NS(C)(=O)=O)c2)C1` (stereo not drawn) [Example 152, 4-Acetylthio-1-(3-methylsulfonylamino-4-phenoxybenzyl)pyrrolidin-2-one] the figure was > 10000 nM; with `CS(=O)(=O)Nc1cc(CN2CC(S)CC2=O)ccc1Oc1ccccc1` (stereo not drawn) [Example 153, 4-Mercapto-1-(3-methylsulfonylamino-4-phenoxybenzyl)pyrrolidin-2-one], 4000 nM.
`CC(=O)S[C@@H]1CC(=O)N(Cc2ccc(Oc3ccc(Br)cc3)cc2)C1` [Example 199, (R)-4-Acetylthio-1-[4-(4′-bromophenoxy)benzyl]pyrrolidin-2-one]: the IC50 is 6 nM.
On the same count and under the same terms, with `O=C1C[C@@H](S)CN1Cc1ccc(Oc2ccc(Br)cc2)cc1` [Example 200, (R)-4-Mercapto-1-[4-(4′-bromophenoxy)benzyl]pyrrolidin-2-one] the figure was 2 nM; with “(R)-4-Acethylthio-1-[4-(4-chlorophenoxy)benzyl]pyrrolidin-2-one [Example 125]”, 6.1 nM.

The assay is the same for the next values; noted with them: Table 10; 37° C., 2 hours.
`CC(=O)SC1CC(=O)N(Cc2ccc(Sc3ccccc3)cc2)C1` (stereo not drawn) [Example 154, 4-Acetylthio-1-(4-phenylthiobenzyl)pyrrolidin-2-one]: the IC50 turned out to be 20 nM.
`O=C1CC(S)CN1Cc1ccc(Sc2ccccc2)cc1` (stereo not drawn) [Example 155, 4-Mercapto-1-(4-phenylthiobenzyl)pyrrolidin-2-one]: the half-maximal inhibitory concentration (IC50) was found to be 7 nM.
For the compound `CC(=O)SC1CC(=O)N(Cc2ccc(Cc3ccccc3)cc2)C1` (stereo not drawn) [Example 159, 4-Acetylthio-1-(4-benzylbenzyl)pyrrolidin-2-one], the IC50 came out at 500 nM.
The same measure, in the same setting: with `O=C1CC(S)CN1Cc1ccc(Cc2ccccc2)cc1` (stereo not drawn) [Example 160, 4-Mercapto-1-(4-benzylbenzyl)pyrrolidin-2-one] the figure was 90 nM; with `CC(=O)SC1CC(=O)N(Cc2ccc(C(=O)c3ccccc3)cc2)C1` (stereo not drawn) [Example 161, 4-Acetylthio-1-(4-benzoylbenzyl)pyrrolidin-2-one], 200 nM.
For `O=C(c1ccccc1)c1ccc(CN2CC(S)CC2=O)cc1` (stereo not drawn) [Example 162, 4-Mercapto-1-(4-benzoylbenzyl)pyrrolidin-2-one], the IC50 was 20 nM.
Consider `CC(=O)SC1CC(=O)N(Cc2ccc(COc3ccccc3)cc2)C1` (stereo not drawn) [Example 163, 4-Acetylthio-1-(4-phenoxymethylbenzyl)pyrrolidin-2-one], for which the IC50 amounted to 500 nM.
As to `O=C1CC(S)CN1Cc1ccc(COc2ccccc2)cc1` (stereo not drawn) [Example 164, 4-Mercapto-1-(4-phenoxymethylbenzyl)pyrrolidin-2-one], the IC50 is 80 nM.
In the case of `CC(=O)SC1CC(=O)N(Cc2ccc(OCc3ccccc3)cc2)C1` (stereo not drawn) [Example 165, 4-Acetylthio-1-(4-benzyloxybenzyl)pyrrolidin-2-one], the 50% inhibitory concentration (IC50) is 1000 nM.
Turning to `O=C1CC(S)CN1Cc1ccc(OCc2ccccc2)cc1` (stereo not drawn) [Example 166, 4-Mercapto-1-(4-benzyloxybenzyl)pyrrolidin-2-one], the IC50 turned out to be 100 nM.
For the compound `CC(=O)SC1CC(=O)N(Cc2ccc(CCc3ccccc3)cc2)C1` (stereo not drawn) [Example 167, 4-Acetylthio-1-(4-phenethylbenzyl)pyrrolidin-2-one], the IC50 was determined as 400 nM.
With `O=C1CC(S)CN1Cc1ccc(CCc2ccccc2)cc1` (stereo not drawn) [Example 168, 4-Mercapto-1-(4-phenethylbenzyl)pyrrolidin-2-one], the IC50 came out at 70 nM.
With `CC(=O)SC1CC(=O)N(CCc2ccc(Oc3ccccc3)cc2)C1` (stereo not drawn) [Example 169, S-[5-Oxo-1-(4-phenoxyphenethyl)-3-pyrrolidinyl]ethanethioate], the IC50 was 7000 nM.
For `O=C1CC(S)CN1CCc1ccc(Oc2ccccc2)cc1` (stereo not drawn) [Example 170, 1-(4-Phenoxyphenethyl)-4-sulfanyl-2-pyrrolidinone], the IC50 came out at 500 nM.
For `CC(=O)SC1CC(=O)N(Cc2ccc([S+]([O-])c3ccccc3)cc2)C1` (stereo not drawn) [Example 171, 4-Acetylthio-1-(4-phenylsulfinylbenzyl)pyrrolidin-2-one], the IC50 is > 10000 nM.
Consider `O=C1CC(S)CN1Cc1ccc([S+]([O-])c2ccccc2)cc1` (stereo not drawn) [Example 172, 4-Mercapto-1-(4-phenylsulfinylbenzyl)pyrrolidin-2-one], for which the IC50 was > 10000 nM.
The same measure, in the same setting: with `CC(=O)SC1CC(=O)N(Cc2ccc(S(=O)(=O)c3ccccc3)cc2)C1` (stereo not drawn) [Example 173, 4-Acetylthio-1-(4-phenylsulfonylbenzyl)pyrrolidin-2-one] the figure was > 10000 nM; with `O=C1CC(S)CN1Cc1ccc(S(=O)(=O)c2ccccc2)cc1` (stereo not drawn) [Example 174, 4-Mercapto-1-(4-phenylsulfonylbenzyl)pyrrolidin-2-one], 510 nM.
Take `CC(=O)SC1CC(=O)N(C(=O)c2ccc(Oc3ccccc3)cc2)C1` (stereo not drawn) [Example 196, S-[5-Oxo-1-(4-phenoxybenzoyl)-3-pyrrolidinyl]ethanethioate]: the IC50 was > 10000 nM.

Still in this assay, the particulars now being: Table 11; 37° C., 2 hours.
Turning to `CC(=O)SC1CC(=O)N(Cc2ccc(Oc3ccsc3)cc2)C1` (stereo not drawn) [Example 157, 4-Acetylthio-1-[4-(3′-thienyloxy)benzyl]pyrrolidin-2-one], the IC50 was determined as 6 nM.
`O=C1CC(S)CN1Cc1ccc(Oc2ccsc2)cc1` (stereo not drawn) [Example 158, 4-Mercapto-1-[4-(3′-thienyloxy)benzyl]pyrrolidin-2-one]: the IC50 turned out to be 4 nM.
On to `CC(=O)SC1CC(=O)N(CC2CCN(C(=O)c3ccccc3)CC2)C1` (stereo not drawn) [Example 193, 4-Acetylthio-1-[(1-benzoyl-4-piperidyl)methyl]pyrrolidin-2-one], for which the IC50 was > 10000 nM.
As for `CC(=O)S[C@@H]1CC(=O)N(Cc2ccc(Oc3ccc4c(c3)OCO4)cc2)C1` [Example 198, S-{(3R)-1-{4-(1,3-benzodioxol-5-yloxy)benzyl]-5-oxopyrrolidinyl}ethanethioate], the IC50 was determined as 12 nM.
Take `CC(=O)SC1CC(=O)N(Cc2ccc3oc4ccccc4c3c2)C1` (stereo not drawn) [Example 201, 4-Acetylthio-1-(2-dibenzofuranmethyl)pyrrolidin-2-one]: the IC50 was determined as 300 nM.
With `O=C1CC(S)CN1Cc1ccc2oc3ccccc3c2c1` (stereo not drawn) [Example 202, 4-Mercapto-1-(2-dibenzofuranmethyl)pyrrolidin-2-one], the IC50 was determined as 100 nM.
As for `CC(=O)SC1CC(=O)N(Cc2ccc(N(c3ccccc3)S(=O)(=O)c3ccc(C)cc3)cc2)C1` (stereo not drawn) [Example 203, 4-Acetylthio-1-[4-(N-phenyl-N-p-toluenesulfonyl)aminobenzyl]pyrrolidin-2-one], the IC50 is > 10000 nM.
The same measure, in the same setting: with `Cc1ccc(S(=O)(=O)N(c2ccccc2)c2ccc(CN3CC(S)CC3=O)cc2)cc1` (stereo not drawn) [Example 204, 4-Mercapto-1-[4-(N-phenyl-N-p-toluenesulfonylamino)benzyl]pyrrolidin-2-one] the figure was 3900 nM.

Staying with this assay, now noted: Table 12; 37° C., 2 hours.
Regarding “S-[2-Oxo-1-(4-phenoxybenzyl)-4-piperidinyl]ethanethioate [Example 110]”, the IC50 was 250 nM.

The record behind these values is patent publication US6953789B2, “Thiol compounds, their production and use” (Takeda Chemical Industries, Ltd., priority 1998, dated 2005).
